Type in all cases: cell-based, human
Assay [1] relates to Daudi (CD20 positive Non-Hodgkin's lymphoma cells). As to the kind of experiment: Cell viability, Cell Titer Glo luminescent assay (Examples 12, 16, 19, 20, 22). The method, then: (§1) Naked antibody anti-CD20-IgG1-Phor18 were chemically conjugated (MS4A and AT80), Mw app.158,000 g/mol at a concentrations of 0.34 mg/ml (MS4A-Phor18) and 0.76 mg/ml (AT-80-Phor18). Cell lines were obtained at the American Type Cell Collection (Mannassas, Va.). Human Non-Hodgkin's lymphoma cells Daudi (CD20 positive, passage number p2), Raji (CD20 positive p 2) and human leukemia cell line U937 (CD20 negative, p 10) were seeded at a density of 3,000 cells per well in opaque plates in heat inactivated full medium. After 24 hours cells were replenished with fresh media (75 μl) and incubated with 25 μl of a 4× serial dilution of MS4A1-Phor18 and AT80-Phor18 of 0.001, 0.01, 0.1, 1, 10, 100 and 500 nM (N=6). Cells incubated for 2-5 hours were assayed for membrane integrity using a luminometric assay kit (Promega, Madison, Wis., Cytotox Glo G9292 lot #301329). Cell viability was determined was determined after 24, and 48 hours using a luminescent assay kit (Promega, Madison, Wis., Cell Titer Glo, G 7572, lot 30068102).
(§2) The concentration of each naked antibody fragment and ADC was determined according to Bradford. Naked antibody scFv Mw 27,088 g/mol at a concentration of 0.3 mg/ml, minibody Mw 78,988 g/mol, 0.231 mg/ml; Phor 18 conjugated antibodies were scFv-Phor18 (Mw 29,349 g/mol, 0.9 mg/ml) and minibody-Phor18 (Mw 93,515, 0.48 mg/ml). Cell lines were obtained at the American Type Cell Collection (Mannassas, Va.). Human Non-Hodgkin's lymphoma cells Daudi (CD20 positive, passage number p8) and human leukemia cell line U937 (CD20 negative, p 16) were seeded at a density of 2,000 cells per well in opaque plates in heat inactivated full medium. After 24 hours cells were replenished with fresh media (75 μl) and incubated with 25 μl of a 4× serial dilution of scFv-Phor18 and minibody-Phor18 ADC and naked antibody fragment (scFv and minibody) prepared in cell culture media were added at concentrations of 0.0001, 0.001, 0.01, 0.1, 1, 10, 100, 200, and 500 nM (N=6). Cells incubated for 4 hours were assayed for membrane integrity using a luminometric assay kit (Promega, Madison, Wis., Cytotox Glo G9292 lot #301329). Cell viability was determined was determined after 24, 48 and 72 hours using a luminescent assay kit (Promega, Madison, Wis., Cell Titer Glo, G 7572, lot 30062102).
(§3) Controls for 100% cell viability (culture media) and 100% cell death (0.1% Triton X 100) incubated under the same conditions.
(§4) Data were processed and analyzed to obtain IC50 values using Graph Pad Prizm version 5.00 for Windows, GraphPad Software, San Diego Calif. USA, www-graphpad-com (Graph Pad Prizm, Inc). Statistical analysis for significance was determined by a two-tailed Student's T-test. Each test was conducted using 2 plates with 2-3 wells each to achieve an N of 4-6 data points per time point.
(§5) The concentration of each naked antibody fragment and ADC was determined spectrophotometrically (OD280). Naked antibody scFv-Fc Mw 52,562 g/mol at a concentration of 1.1 mg/ml, Phor 18 conjugated antibodies were Phor18-VL-scFvFc (Mw 54,685 g/mol, 1.0 mg/ml), scFv-Fc-CH3-Phor18 (Mw 54,685 g/mol, 0.8 mg/ml). Human Non-Hodgkin's lymphoma cells Daudi (CD20 positive, passage number p7) and human leukemia cell line U937 (CD20 negative, p 6) were seeded at a density of 2,000 cells per well in opaque plates in heat inactivated full medium using cell dissociation buffer. After 24 hours cells were replenished with fresh media (75 μl) and incubated and incubated with 25 μl of a 4× serial dilution of each ADC and naked antibody prepared in cell culture media were added at concentrations of 0.01, 0.1, 1, 10, 100, 200 and 500 nM for scFvFc, Phor18-VL-scFvFc and scFv-Fc-CH3-Phor18.
(§6) Cells incubated for 4 hours were assayed for membrane integrity using a luminometric assay kit (Promega, Madison, Wis., Cytotox Glo G9292 lot #26229601). Cell viability was determined was determined after 24 hours using a luminescent assay kit (Promega, Madison, Wis., Cell Titer Glo, G 7572, lot 30731602). […]
Background: Cellular ATP, detected with luciferase, serves as a proxy for viable cell number.

For assay [2] the test system is unchanged. Description: Membrane integrity, Cytotox Glo luminometric assay (Examples 12, 16, 19, 20, 22). To be noted: membrane integrity. The method, then: as §1, §2, §3, §4, §5, §6
The test system of assay [3] is U937 (CD20 negative leukemia cell line). As to the kind of experiment: Cell viability, Cell Titer Glo luminescent assay (Examples 12, 16, 19, 20, 22). As to conditions: for IC50, U937 (CD20 negative) 2-46 h: U937, 2-46 h (membrane integrity and viability time points), Example 12; for IC50, U937 2-48 h: Example 16. The method, then:
as §1, §2, §5
Cells incubated for 4 hours were assayed for membrane integrity using a luminometric assay kit (Promega, Madison, Wis., Cytotox Glo G9292 lot #26229601). Cell viability was determined was determined after 24 hours using a luminescent assay kit (Promega, Madison, Wis., Cell Titer Glo, G 7572, lot 30731602). Controls for 100% cell viability (culture media) and 100% cell death (0.1% Triton X 100) incubated under the same conditions.
Human Non-Hodgkin's lymphoma cells Daudi (CD20 positive, passage number p3) and human leukemia cell line U937 (CD20 negative, p 12) were seeded at a density of 2,000 cells per well in opaque plates in heat inactivated full medium using cell dissociation buffer. […]

The subject of assay [4] is Raji (CD20 positive Non-Hodgkin's lymphoma cells). Description: Cell viability, Cell Titer Glo luminescent assay (Example 12). The method, then: as §1
Assay [5] shares this test system. As to the kind of experiment: Membrane integrity, Cytotox Glo luminometric assay (Example 12). The method, then:
as §1

Assay [6] deals with caspase 3/7 in Daudi cells (CD20 positive). Description: Caspase 3/7 activation, Caspase Glo 3/7 luminometric assay (Examples 13, 17). To be noted: 5 hours; scFv-Phor18 or scFv at 5 and 15 μg/ml; Staurosporine 10 μM = 100%; Daudi (Raji also seeded). The method, then:
Human Non-Hodgkin's lymphoma cells Daudi (CD20 positive, passage number p2), were seeded at a density of 3,000 cells per well in opaque plates in heat inactivated full medium. After 24 hours cells were fed with fresh media (75 μl) and incubated with AT80-Phor18 (0.76 mg/ml) or naked antibody AT-80 of 15 and 75 μg/ml (100 and 500 nM) (N=6). Staurosporine at 10 μM served as positive control for caspase 3/7 activation. After 5 hours of incubatin cultures were assayed for caspase 3/7 levels using a luminometric assay kit (Promega, Madison, Wis., Caspase Glo 3/7 G811C lot #28731802).
Caspase 3/7 activation was calculated from relative light units from luminometric signals. Staurosporine was set at 100% caspase 3/7 activation, cell suspension alone without additions of reagents served as 0% caspase levels.
In in vitro studies, caspase activation of recombinantly expressed CD20 targeting scFv-Phor18 conjugate with “naked” antibody (scFv) in CD20 positive cells (Daudi Burkitt's lymphoma) was compared. Human Non-Hodgkin's lymphoma cells Daudi (CD20 positive, p 5) and Raji (CD20 positive, passage number p 3), were seeded at a density of 3,000 cells per well in opaque plates in heat inactivated full medium. […]
Relative caspase 3/7 activation was calculated from relative light units from luminometric signals. […]

[7] abbreviates: Example 12, listed as MS4A1-Phor18.
Setting [8] is: 46 h (text: 48 h / 46 hours), Example 16.

Entries after “also recorded” stand apart in the source; their conditions may differ. Read-outs that look alike come from different tables or passages of the source.

Regarding “Anti-CD20 MS4A1: naked anti-CD20 antibody MS4A1 (Rituximab Like, R&D) [reference compound]”, the “IC50, Daudi 24 h” value in assay [1] (24 h, Example 12) was “Not toxic”. Further, in assay [1] (46 h (text: 48 h), Example 12), the “IC50, Daudi 46 h” value is recorded as “Not toxic”. For the same molecule, in assay [2] (Example 12), the “IC50, Daudi 2 h” value is given as “Not toxic” and the “IC50, Daudi 5 h” value is on record as “Not toxic”. For the same molecule, in assay [3], the “IC50, U937 (CD20 negative) 2-46 h” value is reported as “Not toxic”. Also, the “IC50, Raji 24 h” value in assay [4] (24 h) is listed as “Not toxic”. Moreover, the “IC50, Raji 46 h” value in assay [4] (46 h (text: 48 h)) is listed as “Not toxic”.
As for Anti-CD20-Phor18 (MS4A1), the “IC50, Raji 2 h” value in assay [5] (2 h) was “not active”. In addition, the “IC50, Raji 5 h” value in assay [5] (5 h) was “not active”. In addition, the IC50 (in general, the concentration at which inhibition is half-maximal) in assay [1] (24 h, Example 12, read-out: IC50, Daudi 24 h) is 10.6 ± 2.1 nM; in assay [1] (46 h (text: 48 h), Example 12, read-out: IC50, Daudi 46 h) it was 3 ± 1.2 nM; in assay [4] (24 h, listed as MS4A1-Phor18, read-out: IC50, Raji 24 h), 267 ± 13 nM; in assay [4] (24 h, read-out: IC50, Raji 24 h) it was 267 ± 13 nM; in assay [4] (46 h (text: 48 h), read-out: IC50, Raji 46 h), 227 ± 11 nM. Further, the “IC50, Daudi 2 h” value is recorded as “Not toxic” in assay [2] (Example 12) and “not active” in assay [2] (setting [7]). Moreover, the “IC50, Daudi 5 h” value is “Not toxic” in assay [2] (Example 12) and “not active” in assay [2] (setting [7]). Also, in assay [3], the “IC50, U937 (CD20 negative) 2-46 h” value is on record as “Not toxic”.

B1: Fv-CH3-CH3-Fv: naked bivalent anti-CD20 minibody, E. coli, SEQ ID NO.:94 (protein)
chain: DIQLTQSPAILSASPGEKVTMTCRASSSVSYIHWFQQKPGSSPKPWIYATSNLASGVPVRFSGSGSGTSYSLTISRVEAEDAATYYCQQWTSNPPTFGGGTKLEIGSTSGGGSGGGSGGGGSSVQLQQPGAELVKPGASVKMSCKASGYTFTSYNMHWVKQTPGRGLEWIGAIYPGNGDTSYNQKFKGKATLTADKSSSTAYMQLSSLTSEDSAVYYCARSTYYGGDWYFDVWGQGTTVTVSSGQPREPQVYTLPPSRDELTKNQVSLTCLVKGFYPSDIAVEWESNGQPENNYKTTPPVLDSDGSFFLYSKLTVDKSRWQQGNVFSCSVMHEALHNHYTQKSLSLSPGKGSTSGGGSGGGSGGGGSSGQPREPQVYTLPPSRDELTKNQVSLTCLVKGFYPSDIAVEWESNGQPENNYKTTPPVLDSDGSFFLYSKLTVDKSRWQQGNVFSCSVMHEALHNHYTQKSLSLSPGKVQLQQPGAELVKPGASVKMSCKASGYTFTSYNMHWVKQTPGRGLEWIGAIYPGNGDTSYNQKFKGKATLTADKSSSTAYMQLSSLTSEDSAVYYCARSTYYGGDWYFDVWGQGTTVTVSSGSTSGGGSGGGSGGGGSSDIQLTQSPAILSASPGEKVTMTCRASSSVSYIHWFQQKPGSSPKPWIYATSNLASGVPVFSGSGSGTSYSLTISRVEAEDAATYYCQQWTSNPPTFGGGTKLEI
Regarding B1, the “IC50, Daudi 24 h” value in assay [1] (24 h, Example 16) was “Not toxic”. Besides, the “IC50, Daudi 46 h” value in assay [1] (setting [8]) is reported as “Not toxic”. Further, the “IC50, U937 2-48 h” value in assay [3] was “Not toxic”.

B2: scFv: naked single chain Fv anti-CD20 fragment with Rituxan CDRs, E. coli, SEQ ID NO.:92 (protein)
scFv: HHHHHHDIQLTQSPAILSASPGEKVTMTCRASSSVSYIHWFQQKPGSSPKPWIYATSNLASGVPVRFSGSGSGTSYSLTISRVEAEDAATYYCQQWTSNPPTFGGGTKLEIGSTSGGGSGGGSGGGGSSVQLQQPGAELVKPGASVKMSCKASGYTFTSYNMHWVKQTPGRGLEWIGAIYPGNGDTSYNQKFKGKATLTADKSSSTAYMQLSSLTSEDSAVYYCARSTYYGGDWYFDVWGQGTTVTVSS
B2: in assay [6], the “Caspase 3/7 levels compared to Staurosporine” value was “did not detectably activate caspases”. The “IC50, Daudi 24 h” value in assay [1] (24 h, Example 16) was “Not toxic”. Moreover, the “IC50, Daudi 46 h” value in assay [1] (setting [8]) was “Not toxic”. Besides, in assay [2] (E. coli expressed, Example 16), the “IC50, Daudi 2 h” value is on record as “Not toxic” and the “IC50, Daudi 5 h” value was “Not toxic”. Also, in assay [3], the “IC50, U937 2-48 h” value is “not killed; also recorded: Not toxic”.

These data come from patent US20190367558A1, “ANTIBODY/DRUG CONJUGATES AND METHODS OF USE” (ESPERANCE PHARMACEUTICALS, INC., priority 2012, published 2019).
